Measured values as given in ChEMBL document CHEMBL4265943, “Design and synthesis of potent dual inhibitors of JAK2 and HDAC based on fusing the pharmacophores of XL019 and vorinostat” (Eur J Med Chem, 2018).

Columns and labels:
MDA-MB-231 [1] = test: Induction of apoptosis in human MDA-MB-231 cells assessed as early apoptotic cells at 0.9 uM after 72 hrs by Annexin V-FITC/propidium iodide staining based flow cytometry (reference value: 1.45%); format: functional
[2] = target: Tyrosine-protein kinase JAK1 (Homo sapiens, UniProt P23458); test: Inhibition of human JAK1 using poly(Glu:Tyr)(4:1) as substrate preincubated for 20 mins followed by [gamma33P]ATP addition measured after 120 mins by ion exchange filter paper method
Chain of Tyrosine-protein kinase JAK1 (P23458 whole entry): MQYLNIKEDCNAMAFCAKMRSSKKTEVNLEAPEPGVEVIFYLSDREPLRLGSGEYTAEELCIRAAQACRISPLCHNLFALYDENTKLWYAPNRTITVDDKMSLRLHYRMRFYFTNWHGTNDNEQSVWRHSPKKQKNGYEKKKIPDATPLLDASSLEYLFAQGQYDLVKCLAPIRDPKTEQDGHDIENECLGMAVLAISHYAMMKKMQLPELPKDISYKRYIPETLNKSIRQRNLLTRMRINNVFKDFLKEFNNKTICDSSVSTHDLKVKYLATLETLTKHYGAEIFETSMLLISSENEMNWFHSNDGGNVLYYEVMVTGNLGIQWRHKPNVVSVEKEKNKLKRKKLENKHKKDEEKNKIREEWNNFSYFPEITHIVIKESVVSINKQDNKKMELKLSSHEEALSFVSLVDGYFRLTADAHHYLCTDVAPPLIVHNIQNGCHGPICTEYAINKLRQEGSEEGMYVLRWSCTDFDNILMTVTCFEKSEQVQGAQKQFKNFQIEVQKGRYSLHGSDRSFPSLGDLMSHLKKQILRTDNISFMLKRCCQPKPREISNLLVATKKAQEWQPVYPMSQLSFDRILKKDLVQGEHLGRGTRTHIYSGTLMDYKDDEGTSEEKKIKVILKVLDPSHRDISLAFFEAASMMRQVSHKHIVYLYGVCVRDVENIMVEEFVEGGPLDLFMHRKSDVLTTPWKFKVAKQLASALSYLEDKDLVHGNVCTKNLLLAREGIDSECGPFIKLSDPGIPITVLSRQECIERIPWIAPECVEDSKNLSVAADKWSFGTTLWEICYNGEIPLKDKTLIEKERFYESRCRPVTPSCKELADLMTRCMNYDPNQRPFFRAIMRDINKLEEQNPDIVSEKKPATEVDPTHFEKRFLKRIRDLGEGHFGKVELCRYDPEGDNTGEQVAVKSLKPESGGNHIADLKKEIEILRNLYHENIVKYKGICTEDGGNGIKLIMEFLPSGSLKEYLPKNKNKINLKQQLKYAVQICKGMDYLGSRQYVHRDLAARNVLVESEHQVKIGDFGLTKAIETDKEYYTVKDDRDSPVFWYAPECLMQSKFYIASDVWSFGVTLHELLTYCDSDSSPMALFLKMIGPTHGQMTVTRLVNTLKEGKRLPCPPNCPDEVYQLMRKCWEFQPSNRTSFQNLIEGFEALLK

[3] = target: T1, Tyrosine-protein kinase JAK3 (Homo sapiens, UniProt P52333); test: Inhibition of human JAK3 using poly(Glu:Tyr)(4:1) as substrate preincubated for 20 mins followed by [gamma33P]ATP addition measured after 120 mins by ion exchange filter paper method
T1 sequence (P52333 whole entry): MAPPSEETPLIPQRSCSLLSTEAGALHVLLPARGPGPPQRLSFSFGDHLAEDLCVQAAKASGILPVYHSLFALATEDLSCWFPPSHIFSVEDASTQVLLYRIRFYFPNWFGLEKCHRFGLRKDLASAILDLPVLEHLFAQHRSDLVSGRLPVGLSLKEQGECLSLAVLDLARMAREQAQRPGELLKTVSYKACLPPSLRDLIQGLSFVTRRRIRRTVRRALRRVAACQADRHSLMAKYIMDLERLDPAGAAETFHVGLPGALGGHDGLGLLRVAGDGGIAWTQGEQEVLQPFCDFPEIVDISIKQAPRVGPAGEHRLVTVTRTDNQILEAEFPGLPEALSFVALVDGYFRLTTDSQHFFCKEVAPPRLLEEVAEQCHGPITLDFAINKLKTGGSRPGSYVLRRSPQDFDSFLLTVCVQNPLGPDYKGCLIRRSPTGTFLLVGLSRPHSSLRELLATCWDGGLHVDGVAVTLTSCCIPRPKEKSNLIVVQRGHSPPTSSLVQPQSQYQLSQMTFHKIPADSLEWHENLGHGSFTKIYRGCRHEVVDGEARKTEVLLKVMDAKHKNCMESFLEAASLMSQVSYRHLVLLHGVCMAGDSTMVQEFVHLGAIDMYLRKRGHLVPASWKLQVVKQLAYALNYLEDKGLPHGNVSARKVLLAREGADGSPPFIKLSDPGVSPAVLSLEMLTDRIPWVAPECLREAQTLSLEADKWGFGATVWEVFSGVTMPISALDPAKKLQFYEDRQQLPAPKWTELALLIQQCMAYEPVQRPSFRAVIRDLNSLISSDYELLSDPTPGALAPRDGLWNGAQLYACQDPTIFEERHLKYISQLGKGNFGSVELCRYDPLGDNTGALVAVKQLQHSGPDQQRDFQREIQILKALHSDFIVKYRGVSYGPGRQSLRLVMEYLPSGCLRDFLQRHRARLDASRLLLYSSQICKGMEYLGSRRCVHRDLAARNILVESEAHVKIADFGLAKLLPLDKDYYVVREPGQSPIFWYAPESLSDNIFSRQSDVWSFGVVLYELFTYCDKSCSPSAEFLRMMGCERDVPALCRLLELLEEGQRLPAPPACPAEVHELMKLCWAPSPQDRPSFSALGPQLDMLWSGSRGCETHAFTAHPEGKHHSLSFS

MDA-MB-231 [4] = test: Antiproliferative activity against human MDA-MB-231 cells after 72 hrs by MTT assay; format: functional, cell-based; conditions: MDA-MB-231, 72 h
[5] = Antiproliferative activity against human AC10 cells after 72 hrs by MTT assay; format: cell-based
[6] = Selectivity index, ratio of CC50 for mouse TAMH cells to IC50 for human PC3 cells; format: toxicity; conditions: TAMH cells (CC50) and PC3 cells (IC50)
PC-3 [7] = test: Induction of apoptosis in human PC3 cells assessed as early apoptotic cells at 0.71 uM after 72 hrs by Annexin V-FITC/propidium iodide staining based flow cytometry (reference value: […]%); format: functional
HCT-116 [8] = test: Induction of apoptosis in human HCT116 cells assessed as live cells at 1.14 uM after 72 hrs by Annexin V-FITC/propidium iodide staining based flow cytometry (reference value: 95.7%); format: functional
MCF7 [9] = test: Induction of apoptosis in human MCF7 cells assessed as necrotic cells at 0.86 uM after 72 hrs by Annexin V-FITC/propidium iodide staining based flow cytometry (reference value: 2.17%); format: functional
MCF7 [10] = test: Induction of apoptosis in human MCF7 cells assessed as early apoptotic cells at 0.86 uM after 72 hrs by Annexin V-FITC/propidium iodide staining based flow cytometry (reference value: 1.19%); format: functional
[11] = Selectivity index, ratio of CC50 for human AC10 cells to IC50 for human MCF7 cells; format: toxicity; conditions: AC10 cells (CC50) and MCF7 cells (IC50)
HCT-116 [12] = test: Induction of apoptosis in human HCT116 cells assessed as early apoptotic cells at 1.14 uM after 72 hrs by Annexin V-FITC/propidium iodide staining based flow cytometry (reference value: 1.31%); format: functional
[13] = Selectivity index, ratio of CC50 for human AC10 cells to IC50 for human HCT116 cells; format: toxicity; conditions: AC10 cells (CC50) and HCT116 cells (IC50)
PC-3 [14] = test: Induction of apoptosis in human PC3 cells assessed as late apoptotic cells at 0.71 uM after 72 hrs by Annexin V-FITC/propidium iodide staining based flow cytometry (reference value: 1.01%); format: functional
PC-3 [15] = test: Induction of apoptosis in human PC3 cells assessed as necrotic cells at 0.71 uM after 72 hrs by Annexin V-FITC/propidium iodide staining based flow cytometry (reference value: 0.66%); format: functional

IC50 [2]: 52.1 nM
IC50 [3]: 80.1 nM
IC50 (MDA-MB-231 [4]): 990 nM
Structure (SMILES): O=C(CCCCCCC(=O)Nc1ccc(-c2ccnc(Nc3ccc(N4CCOCC4)cc3)n2)cc1)NO
Activity (MDA-MB-231 [1]): 43.86%
CC50 at 72 h [5]: 3980 nM
selectivity ratio [6]: 9.98
Activity (PC-3 [7]): 45.69%
Activity (HCT-116 [8]): 52.4%
Activity (MCF7 [9]): 7.97%
Activity (MCF7 [10]): 29.26%
selectivity ratio [11]: 5.69
Activity (HCT-116 [12]): 31.19%
selectivity ratio [13]: 3.79
Activity (PC-3 [14]): 13.06%
Activity (PC-3 [15]): 1.37%
